{
  "source": "patent US5922709A",
  "about": "“Antifungal composition” (Banyu Pharmaceutical Co., Ltd., priority 1995, dated 1999)",
  "assay_type_in_all_cases": "cell-based",
  "key": {"[1]": {"system": "Candida albicans IFO 1385", "assay": "Minimum inhibitory concentration (agar dilution method) of miconazole in the presence or absence of BE-31405, Candida albicans IFO 1385", "conditions": "for MIC of miconazole: yeast morphology agar, 37° C., 2 days"}, "[2]": {"system": "Candida albicans IFO 1270", "assay": "Minimum inhibitory concentration (agar dilution method) of itraconazole in the presence and absence of BE-31405, Candida albicans IFO 1270", "conditions": "for MIC of intraconazole: 37° C., 2 days", "description": "(§1) Now, the minimum inhibitory concentrations (MIC, by an agar dilution method) of itraconazole against Candida albicans IFO 1270, IFO 1385 and ATCC90028 in the presence and absence of BE-31405, are shown in Tables 3, 4 and 5, respectively. As the agar medium for the measurement of MIC, a culture medium having 1% of glucose and 1.2% of agar added to a yeast nitrogen base, manufactured by Difico Co., was used, and after inoculation of the strain solution, culturing was carried out at 37° C. for 2 days, whereupon the concentration at which no growth of the strain was observed, was judged to be MIC."}, "[3]": {"system": "Candida albicans IFO 1385", "assay": "Minimum inhibitory concentration (agar dilution method) of itraconazole in the presence and absence of BE-31405, Candida albicans IFO 1385", "conditions": "for MIC of intraconazole: 37° C., 2 days", "description": "as §1"}, "[4]": {"system": "Candida albicans ATCC 90028", "assay": "Minimum inhibitory concentration (agar dilution method) of itraconazole in the presence and absence of BE-31405, Candida albicans ATCC 90028", "conditions": "for MIC of intraconazole: 37° C., 2 days", "description": "as §1"}, "[5]": {"conditions": "BE-31405 0.0 μg/ml (absence), yeast nitrogen base, 1% glucose, 1.2% agar"}, "[6]": {"conditions": "itraconazole combined with BE-31405, IFO 1270 (Table 3)"}, "[7]": {"conditions": "with BE-31405 0.025 μg/ml, yeast nitrogen base agar"}, "[8]": {"conditions": "with BE-31405 0.1 μg/ml, yeast nitrogen base agar"}, "[9]": {"conditions": "with BE-31405 0.39 μg/ml, yeast nitrogen base agar"}, "[10]": {"conditions": "itraconazole combined with BE-31405, IFO 1385 (Table 4)"}, "[11]": {"conditions": "with BE-31405 0.05 μg/ml, yeast nitrogen base agar"}, "[12]": {"conditions": "itraconazole combined with BE-31405, ATCC 90028 (Table 5)"}},
  "data": [
    {"smiles": "CC(=O)OC1C2OC3(OCC45CC6C(C)CCC6C6(C=O)CC4C=C(C(C)C)C65C(=O)O)OC2OC1C3O", "note": "(stereo not drawn) [BE-31405]", "values": [
      {"measurement": "MIC", "setting": "[1]; Candida albicans, IFO1385, 48 h, BE31405 alone under this test condition (Table 2)", "result": 1.56, "unit": "µg/mL"},
      {"measurement": "MIC", "setting": "[2]; Candida albicans, IFO1270, 48 h, BE31405 alone under this test condition (Table 3)", "result": 0.78, "unit": "µg/mL"},
      {"measurement": "MIC", "setting": "[3]; Candida albicans, IFO1385, 48 h, BE31405 alone under this test condition (Table 4)", "result": 1.56, "unit": "µg/mL"},
      {"measurement": "MIC", "setting": "[4]; Candida albicans, ATCC90028, 48 h, BE31405 alone under this test condition (Table 5)", "result": 1.56, "unit": "µg/mL"}
    ]},
    {"smiles": "Clc1ccc(COC(Cn2ccnc2)c2ccc(Cl)cc2Cl)c(Cl)c1", "note": "(stereo not drawn) [miconazole]", "values": [
      {"measurement": "MIC of miconazole", "setting": "[1]; BE-31405 0.0 μg/ml (absence)", "result": 12.5, "unit": "µg/mL"},
      {"measurement": "antifungal activities of miconazole in the presence of a low concentration of BE-31405", "setting": "[1]; in the presence of a low concentration of BE-31405", "result": "substantially enhanced"},
      {"measurement": "fractional inhibitory concentration index", "setting": "[1]; miconazole combined with BE-31405", "result": 0.2},
      {"measurement": "effect of combined use", "setting": "[1]; miconazole combined with BE-31405, judged from fractional inhibitory concentration index", "result": "synergistic effect"},
      {"measurement": "MIC of miconazole", "setting": "[1]; with BE-31405 0.1 μg/ml", "result": 1.56, "unit": "µg/mL"},
      {"measurement": "MIC of miconazole", "setting": "[1]; with BE-31405 0.2 μg/ml", "result": 0.78, "unit": "µg/mL"},
      {"measurement": "MIC of miconazole", "setting": "[1]; with BE-31405 0.39 μg/ml", "result": 0.39, "unit": "µg/mL"},
      {"measurement": "MIC of miconazole", "setting": "[1]; with BE-31405 0.78 μg/ml", "result": 0.05, "unit": "µg/mL"}
    ]},
    {"smiles": "CCC(C)n1ncn(-c2ccc(N3CCN(c4ccc(OCC5COC(Cn6cncn6)(c6ccc(Cl)cc6Cl)O5)cc4)CC3)cc2)c1=O", "note": "(stereo not drawn) [itraconazole]", "values": [
      {"measurement": "MIC of intraconazole", "setting": "[2]; [5]", "result": "> 100", "unit": "µg/mL"},
      {"measurement": "effect of combined use", "setting": "[2]; [6]", "result": "strong synergistic effects"},
      {"measurement": "fractional inhibitory concentration index", "setting": "[2]; [6]", "result": "at most 0.2"},
      {"measurement": "antifungal activities of itraconazole in the presence of a low concentration of BE-31405", "setting": "[2]; low concentration of BE-31405, IFO 1270 (Table 3)", "result": "substantially enhanced"},
      {"measurement": "MIC of intraconazole", "setting": "[2]; with BE-31405 0.006 μg/ml, yeast nitrogen base agar", "result": 0.05, "unit": "µg/mL"},
      {"measurement": "MIC of intraconazole", "setting": "[2]; [7]", "result": 0.013, "unit": "µg/mL"},
      {"measurement": "MIC of intraconazole", "setting": "[2]; [8]", "result": 0.013, "unit": "µg/mL"},
      {"measurement": "MIC of intraconazole", "setting": "[2]; [9]", "result": 0.013, "unit": "µg/mL"},
      {"measurement": "MIC of intraconazole", "setting": "[3]; [5]", "result": "> 100", "unit": "µg/mL"},
      {"measurement": "effect of combined use", "setting": "[3]; [10]", "result": "strong synergistic effects"},
      {"measurement": "fractional inhibitory concentration index", "setting": "[3]; [10]", "result": "at most 0.2"},
      {"measurement": "antifungal activities of itraconazole in the presence of a low concentration of BE-31405", "setting": "[3]; low concentration of BE-31405, IFO 1385 (Table 4)", "result": "substantially enhanced"},
      {"measurement": "MIC of intraconazole", "setting": "[3]; [7]", "result": 1.56, "unit": "µg/mL"},
      {"measurement": "MIC of intraconazole", "setting": "[3]; [11]", "result": 0.2, "unit": "µg/mL"},
      {"measurement": "MIC of intraconazole", "setting": "[3]; [8]", "result": 0.1, "unit": "µg/mL"},
      {"measurement": "MIC of intraconazole", "setting": "[3]; [9]", "result": 0.05, "unit": "µg/mL"},
      {"measurement": "MIC of intraconazole", "setting": "[4]; [5]", "result": "> 100", "unit": "µg/mL"},
      {"measurement": "effect of combined use", "setting": "[4]; [12]", "result": "strong synergistic effects"},
      {"measurement": "fractional inhibitory concentration index", "setting": "[4]; [12]", "result": "at most 0.2"},
      {"measurement": "antifungal activities of itraconazole in the presence of a low concentration of BE-31405", "setting": "[4]; low concentration of BE-31405, ATCC 90028 (Table 5)", "result": "substantially enhanced"},
      {"measurement": "MIC of intraconazole", "setting": "[4]; [7]", "result": 1.56, "unit": "µg/mL"},
      {"measurement": "MIC of intraconazole", "setting": "[4]; [11]", "result": 0.2, "unit": "µg/mL"},
      {"measurement": "MIC of intraconazole", "setting": "[4]; [8]", "result": 0.2, "unit": "µg/mL"},
      {"measurement": "MIC of intraconazole", "setting": "[4]; [9]", "result": 0.1, "unit": "µg/mL"}
    ]}
  ]
}
